# Measured values from a melting point compilation (Tetko et al.; mined from patent text by program, amines drawn as free bases though some values may be those of a salt).
row,melting point,SMILES
1,98.5 to 102 °C,CCOC(=O)COc1cccc(C(NC(C)=O)(C(=O)OCC)C(=O)OCC)c1
2,143 to 145 °C,CCOCc1nc2c(N)nc(C)c(C)c2n1CCOCc1ccncc1
3,208 to 209 °C,CC(C)Cn1c(=O)n(C)c(=O)c2c(Sc3ccc(N)cn3)c(Cc3cccc4ccccc34)sc21
4,> 260 °C,COc1cc(OC)c(-c2cc3ccccc3n2C)cc1C=CC(=O)c1ccc(S(=O)(=O)NO)cc1
5,208 °C,CN(C)c1ccc(S(=O)(=O)n2c(CCCC(=O)O)cc3nc(Cl)ccc32)c(Cl)c1
6,285 °C,COc1cccc(N2CCN(c3cc4c(cc3F)ncc3c4c(=O)c(C(=O)O)cn3C)CC2C)c1 (stereo unspecified)
7,75 to 77 °C,Cc1ccc(S(=O)(=O)OC2CC3(C)C=CC(C)(C2)O3)cc1 (stereo unspecified)
8,154 to 156 °C,CN(CCOc1ccc(CC(S)C(=O)O)cc1)c1nc2ccccc2o1 (stereo unspecified)
9,234 to 236 °C,COc1cccc(Cc2n[nH]c3c2c(=O)n(-c2ccccc2)c2ncccc32)c1
10,91 °C,O=S(=O)(CCCl)c1ccc(Cl)cc1
11,180 to 182 °C,CC(=O)OC(C)c1cc2c(s1)C(=O)c1c(C(C)OC(C)=O)csc1C2=O (stereo unspecified)
12,153 to 154 °C,CCc1cn(S(C)(=O)=O)c2c1C(=O)CC(c1ccccc1)C2 (stereo unspecified)
13,65 to 70 °C,Cc1ccccc1C(CCC(=O)O)Oc1cc(OCc2ccsc2)ccc1C(=O)C=Cc1ccccn1 (racemic)
14,61 to 70 °C,COc1ccnc(C(=O)N[C@H]2COC[C@H](OCCC(C)C)[C@@H](OCCC(C)C)[C@H](C)OC2=O)c1O
15,136 to 137 °C,CC(C)(C)OC(=O)N1CCC(c2cn(S(C)(=O)=O)c3ccccc23)CC1
16,214 to 218 °C,Cc1ccccc1CC(=O)Nc1ccc(C(=O)O)c(Cl)c1
17,162 to 163 °C,CCOc1cc2c(c3c1OC(C)(C)C3)C(c1cccc(NC(=O)CSC)c1)=NC(C)(C)C2
18,154 to 155 °C,O=C(CCCCl)Nc1ccc2c(c1NC(=O)CCCCl)C(=O)c1ccccc1C2=O
19,37 to 39 °C,C[Si](C)(C)CCOC(=O)c1cccc2nnsc12
20,236 to 239 °C,CC(=O)Nc1ncc(Sc2ccc(NS(C)(=O)=O)cc2)s1
21,54 °C,COC(=O)[C@H](Cc1cc(F)cc(F)c1)NC(=O)OCc1ccccc1

row,melting point,SMILES
1,32 to 33 °C,COC(=O)c1ccc(OCCC[Si](C)(C)C)cc1O
2,155 °C,NC(=O)N(O)Cc1ccc(Oc2ccc(-n3ccnc3)cc2)o1
3,126 to 127 °C,CCN1C(=O)Cc2cc(C=O)ccc21
4,103 to 105 °C,CC(=O)Oc1cc(N(C)C2CCCCC2)c2ccccc2c1OC(C)=O
5,120 to 122 °C,COC(=O)C(=CC(c1ccccc1)c1ccccc1)C(=O)OC
6,206 to 207 °C,COC(=O)COc1ccc2cc(CNC(=O)c3cnn(-c4ccc(Cl)cc4)c3C(F)(F)F)ccc2c1Br
7,206 to 208 °C,CN(C)c1ccc2c(c1)CN(c1cccc(-c3cc(Nc4ccncn4)c(=O)n(C)c3)c1CO)C2=O
8,59 to 60 °C,O=C(OC1CCCCCC1=O)c1ccccc1 (stereo unspecified)
9,129 to 130 °C,COc1ccc(CCl)cc1OCc1nc(-c2ccccc2)oc1C
10,89 to 90 °C,CC(C)c1cc(CO)n(Cc2ccc(Cl)cc2Cl)n1
11,48 to 49 °C,CCCc1ccc(C(=O)C(=O)OCC)[nH]1
12,141 to 143 °C,COc1ccc(C(CCCCC(=O)O)C2=CC(=O)c3ccccc3C2=O)cc1 (stereo unspecified)
13,156 °C,CCCOc1ccc(/C=C/c2nc3c(c(=O)n(CC)c(=O)n3CC)n2C)cc1
14,151 to 152 °C,CNC(=O)C(Cc1ccc(OCCc2nc(-c3ccccc3)oc2C)cc1)C(=O)OC (stereo unspecified)
15,194 to 196 °C,C[C@@H]1[C@H]2C(=O)N(Cc3ccccc3)C(=O)[C@H]2[C@@H](c2ccc(C(N)=NO)cc2)N1C (racemic)
16,182 to 183 °C,O=C1NC(=O)C(=Cc2ccc(OCc3cccc(Cl)c3)cc2)S1
17,63.5 to 65.1 °C,O=C(CCCl)c1ccc2c(c1)CCC2
18,79 to 80 °C,COC(=O)c1cccc2c(C(F)(F)F)c(OC)ccc12
19,186 to 187 °C,O=C1COc2ccc(NC(=O)C(=O)N3CCC(Cc4ccccc4)CC3)cc2N1
20,113 to 116 °C,O=C(NCC1(O)CCCCCC1)c1cc(-c2ccccc2C(=O)O)ccc1Cl
21,46 °C,CCc1nc2c(N)cccc2o1

# The next lines start with the compound.
row,SMILES,melting point
1,O=P(O)(O)C1(P(=O)(O)O)CCCCN1,70 °C
2,CCCN1C(=O)COc2cc(F)c(N=c3sc(=S)n4n3CCCC4)cc21,112 to 114 °C
3,CCN(CC)c1nc(C)nc(N)n1,125 to 127 °C
4,O=C(OC1CCCCC1)c1cncn1C(c1ccccc1)c1ccccn1 (stereo unspecified),161 °C
5,CS(=O)(=O)c1ccc(-c2cnn(-c3ccc(F)c(F)c3)c(=O)c2-c2cccs2)cc1,189 to 191 °C
6,NS(=O)(=O)c1ccc(NN=Cc2ccc(Cl)cc2Cl)cc1,219 to 221 °C
7,C=C(C)C(=O)N1CC(C)OC1(C)C (stereo unspecified),24 °C
8,CC(SC1COC(c2ccc(C(=O)Nc3ccc(SC(F)(F)F)cc3)cc2)OC1)C(O)(Cn1cncn1)c1ccc(F)cc1F (stereo unspecified),95 °C
9,CC1(C)Oc2ccc(S(=O)(=O)C(F)(F)C(F)(F)C(F)(F)F)cc2[C@@H](N2Cc3ccccc3C2=O)[C@@H]1O (relative stereo),241 to 249 °C
10,CC1CN(Cc2ccccc2)Cc2cc(-c3ccccc3)n(Cc3ccccc3)c21 (stereo unspecified),131 °C
11,NS(=O)(=O)c1ccc(N2CN(C3CCCCC3)CC2=O)c(Cl)c1,188 to 190 °C
12,O=C1COc2ccc(C3=Nc4cc(Cl)ccc4SC3c3ccccc3)cc2N1 (stereo unspecified),234 to 236 °C
13,CCCN1CC(CSC)=C[C@H]2Cc3n[nH]cc3C[C@@H]21 (relative stereo),133 to 134 °C
14,CC(C)(C)OC(=O)CC1(SN=O)C2CC3CC(C2)CC1C3 (stereo unspecified),85 to 87 °C
15,O=C(c1ccccc1)N(CC(=O)N1c2ccccc2N(Cc2ccccc2)C(=O)[C@H]2CCC[C@H]21)Cc1ccccc1 (relative stereo),166 to 168 °C
16,O=C1Nc2ccccc2C12COc1ccc(Br)cc12 (stereo unspecified),225 to 228 °C
17,CC1CCCCC1OC(=O)c1ncn2c1C1CCCN1C(=O)c1c(Cl)cccc1-2 (stereo unspecified),213 to 215 °C
18,C=CCNc1c(C#N)cnc2cn[nH]c12,249 to 252 °C
19,COc1ccc(Cn2c(O)nc3c(N)nc4ccccc4c32)cc1,> 260 °C
20,N#Cc1cc(Cc2ccc(Cl)cc2)ccc1N,91.5 to 93 °C
21,O=Cc1ccc(-c2cc3c4c(c2)cc(F)n4C(=O)CNC3)cc1,212 to 214 °C
22,NS(=O)(=O)c1cnc(C2CC2=O)s1 (stereo unspecified),148 to 149 °C
23,COC(=N[N+](=O)[O-])NCc1cnc(Cl)s1,133 to 135 °C
24,Cc1ncc2c(c1C#N)COc1ccccc1C2=O,124 to 126 °C
25,C[C@]12CCC(=O)N[C@@H]1CCc1cc(Sc3ccccc3F)ccc12,196 to 198 °C
26,O=[N+]([O-])c1cccc(-c2cc(C(O)c3ccnc(Cl)c3)cc3ccoc23)c1 (stereo unspecified),178 to 180 °C
27,COC(=O)c1sc(C)c2[nH]c(C(F)(F)C(F)(F)C(F)(F)F)nc12,147 to 148 °C
28,COc1ccc(-c2nnn(-c3ccc(C(F)(F)F)cc3Cl)c2CBr)cc1,152 to 154 °C
29,O=C(O)c1cn2c(nc1=O)CCCCC2,198 °C
